From patent publication US20250034139A1, “AMINE COMPOUNDS HAVING ANTI-INFLAMMATORY, ANTIFUNGAL, ANTIPARASITIC, AND ANTICANCER ACTIVITY” (PHARMA CINQ, LLC, priority 2013, published 2025)
Values after ≈ are worked out from the molar mass of the structure shown. Where a name gives a salt, the structure may show the parent alone.

What was measured:
[1] = system: PC3 human prostate cancer cells; experiment: Example S: in vitro anticancer screen, PC-3 cells, Wst1; type: cell-based; details: Homo sapiens, PC-3, approximately 20 hours, Wst1, read-out: PC-3, percent of cancer cell survival relative to vehicle treated cells
Method in brief: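 PC-3 cells, 2×10^4 cells/well, exposed ~20 h to vehicle or compound at 0.4, 0.5 or 2.5 μM as specified per compound. Wst1 dye added for 2 h; absorbance 450 nm (reference 630 nm), triplicates. Values are percent cell survival versus vehicle-treated cells.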

[2] = system: PC-3 prostate cancer cells; experiment: Example T: sensitisation of PC-3 cells to doxorubicin, oxaliplatin, paclitaxel or vincristine, Wst1; type: cell-based, human; details: PC-3 cells, 72 hours; for Doxorubicin 3.5 μM: percent cell survival / Oxaliplatin 100 μM: percent cell survival / Paclitaxel 50 μM: percent cell survival / Vincristine 100 nM: percent cell survival: chemotherapy agent alone normalized to 100%; for viability at 0.4 µM: compound 0.4 μM alone; for viability at 2.5 µM: compound 2.5 μM alone
[3] = system: Cryptococcus neoformans strains; experiment: Example N: MIC and MFC (CLSI) against Cryptococcus neoformans; type: cell-based; design: MIC at 50% inhibition: unit not given here; details: for MIC / MFC: Cryptococcus neoformans, three clinical strains; for MIC: read-out: MIC 100%, Range, incubated for 72 hrs
Experimental: The objective of this study was to determine the antifungal activity of eight experimental compounds against a representative panel of fungal isolates, including Candida albicans, C. glabrata, Cryptococcus neoformans, Trichophyton rubrum, Aspergillus fumigatus, and Rhizopus spp. Antifungal activity was measured by minimum inhibitory concentration (MIC) and minimum fungicidal concentration (MFC).
Three recent clinical strains of each species, taken from the culture collection at the Center for Medical Mycology, Case Western University, were tested.
Compounds in powder form were dissolved in DMSO. Serial dilutions of each compound were then prepared in RPMI-1640 in a range of […].
MIC testing was performed according to the CLSI M27-A3 and M38-A2 standards for the susceptibility testing of yeasts and filamentous fungi, respectively (1, 2). Test isolates were subcultured from frozen slants onto potato dextrose agar plates (Trichophyton rubrum was subcultured onto oatmeal plates for conidia production) and checked for purity. Inocula were then prepared in RPMI-1640 (YNB for Cryptococcus) to a concentration of 0.5-2.5×10^3 colony-forming units (CFU)/ml or 0.4-5×10^4 conidia/ml for yeast and filamentous fungi, respectively.
MFC determinations were performed according to the modifications previously described by Canton et al. and Ghannoum and Isham. (3, 4) Specifically, the total contents of each clear well from the MIC assay were subcultured onto potato dextrose agar. To avoid antifungal carryover, the aliquots were allowed to soak into the agar and then were streaked for isolation once dry, thus removing the cells from the drug source.

S. cerevisiae = experiment: Example I: Saccharomyces cerevisiae growth inhibition (OD 600 nm); type: cell-based; details: Saccharomyces cerevisiae, 18 hour incubation at 30° C., OD 600 nm, XLfit; for IC50: read-out: IC50, uM (50% inhibition of fungal growth); for MIC: read-out: MIC, uM (99% of inhibition of fungal growth)
[4] = Homo sapiens, Wst1, vehicle = 100, read-out: No Chemo: percent cell survival
[5] = compound 0.4 μM + doxorubicin 3.5 μM
[6] = compound 0.4 μM + oxaliplatin 100 μM
[7] = compound 0.4 μM + paclitaxel 50 μM
[8] = compound 0.4 μM + vincristine 100 nM
[9] = compound 2.5 μM + doxorubicin 3.5 μM
[10] = compound 2.5 μM + oxaliplatin 100 μM
[11] = compound 2.5 μM + paclitaxel 50 μM
[12] = compound 2.5 μM + vincristine 100 nM

| Compound | viability at 0.4 µM [1] [%] | viability at 0.4 µM [2, 4] [%] | Doxorubicin 3.5 μM: percent cell survival [2, 5] [%] | Oxaliplatin 100 μM: percent cell survival [2, 6] [%] | Paclitaxel 50 μM: percent cell survival [2, 7] [%] | Vincristine 100 nM: percent cell survival [2, 8] [%] | IC50 (S. cerevisiae) [µM] | MIC (S. cerevisiae) [µM] | also measured |
| --- | --- | --- | --- | --- | --- | --- | --- | --- | --- |
| CCCCCCOc1ccc(CNc2ccnc3ccccc23)cc1 [AA, N-[4-(Hexyloxy)benzyl]quinolin-4-amine] |  |  |  |  |  |  |  |  | viability at 1.5 µM ([1]; 1.5 μM): 82.6%; viability at 1.5 µM ([2]; Homo sapiens, compound 1.5 μM alone, Wst1, vehicle = 100, read-out: No Chemo: percent cell survival): 82.6%; Doxorubicin 3.5 μM: percent cell survival ([2]; compound 1.5 μM + doxorubicin 3.5 μM): 38.6%; Oxaliplatin 100 μM: percent cell survival ([2]; compound 1.5 μM + oxaliplatin 100 μM): 31%; Paclitaxel 50 μM: percent cell survival ([2]; compound 1.5 μM + paclitaxel 50 μM): 22.2%; Vincristine 100 nM: percent cell survival ([2]; compound 1.5 μM + vincristine 100 nM): 43% |
| COc1ccc(OCCCCCCCCNc2ncnc3ccccc23)cc1 [AE, N-[8-(4-Methoxyphenoxy)octyl]quinazolin-4-amine] |  |  |  |  |  |  |  |  | MIC [3]: 0.25 to 4 µg/mL (≈ 0.659 to 10.5 µM); MFC [3]: 1 to 8 µg/mL (≈ 2.64 to 21.1 µM) |
| c1ccc(Oc2cccc(CNc3ccnc4ccccc34)c2)cc1 [AF, N-(3-Phenoxybenzyl)quinolin-4-amine] | 19.1 | 19.1 | 35 | 32.4 | 25.2 | 22.6 |  |  |  |
| CCCCCCOc1cccc(CNc2ncnc3ccccc23)c1 [AK, N-[3-(Hexyloxy)benzyl]quinazolin-4-amine] |  |  |  |  |  |  | 23.5 |  |  |
| CCCCOCCCCCCCCCCNc1ccnc2ccccc12 [AM, N-(10-Butoxydecyl)quinolin-4-amine] | 58.5 | 58.5 | 24.7 | 25.4 | 54.8 | 26 | 13.4 | 18.9 (≈ 6.73 µg/mL) | MIC [3]: 2 to 4 µg/mL (≈ 5.61 to 11.2 µM); MFC [3]: 8 µg/mL (≈ 22.4 µM) |
| CCCCCCOCCCCCCCCn1cnc2cnccc21 [AS, 1-[8-(Hexyloxy)octyl]-1H-imidazo[4,5-c]pyridine] |  |  |  |  |  |  | 38.5 | 48.9 (≈ 16.2 µg/mL) | viability at 2.5 µM [1]: 31.1%; viability at 2.5 µM [2, 4]: 31.1%; Doxorubicin 3.5 μM: percent cell survival [2, 9]: 51.1%; Oxaliplatin 100 μM: percent cell survival [2, 10]: 55.5%; Paclitaxel 50 μM: percent cell survival [2, 11]: 36.8%; Vincristine 100 nM: percent cell survival [2, 12]: 30.8% |
| CCCCOCCCCCCCCCCn1cnc2cnccc21 [AT, 1-(10-Butoxydecyl)-1H-imidazo[4,5-c]pyridine] | 34.6 | 34.6 | 65.4 | 76.8 | 57.4 | 32.9 |  |  |  |
| CCCCCCOCCCCCCCCNc1ccncn1 [AU, N-[8-(Hexyloxy)octyl]pyrimidin-4-amine] |  |  |  |  |  |  | 18 | 24.3 (≈ 7.46 µg/mL) | viability at 2.5 µM [1]: 32.4%; viability at 2.5 µM [2, 4]: 32.4%; Doxorubicin 3.5 μM: percent cell survival [2, 9]: 25.7%; Oxaliplatin 100 μM: percent cell survival [2, 10]: 41.1%; Paclitaxel 50 μM: percent cell survival [2, 11]: 34.2%; Vincristine 100 nM: percent cell survival [2, 12]: 32% |
| CCCCCCOCCCCCCCCNc1cc(C)nc2ccccc12 [AV, N-[8-(Hexyloxy)octyl]-2-methylquinolin-4-amine] |  |  |  |  |  |  | 19.7 | 19.8 (≈ 7.32 µg/mL) | viability at 2.5 µM [1]: 38.2%; viability at 2.5 µM [2, 4]: 38.2%; Doxorubicin 3.5 μM: percent cell survival [2, 9]: 62.6%; Oxaliplatin 100 μM: percent cell survival [2, 10]: 59.3%; Paclitaxel 50 μM: percent cell survival [2, 11]: 34.4%; Vincristine 100 nM: percent cell survival [2, 12]: 37.2% |
| CCCCCCOc1cccc(OCCCNc2ccnc3ccccc23)c1 [AZ, N-{3-[3-(Hexyloxy)phenoxy]propyl}quinolin-4-amine] | 95.4 | 95.4 | 33.6 | 26.9 | 54.1 | 71.2 | 18.6 | 24.1 (≈ 9.11 µg/mL) |  |
| Cc1cccc(OCCCCCCCCNc2ccnc3ccccc23)c1 [BE, N-[8-(m-Tolyloxy)octyl]quinolin-4-amine] | 99.1 | 99.1 | 44.1 | 41.2 | 64 | 74.9 | 19.2 | 24.1 (≈ 8.75 µg/mL) |  |
| Cc1ccc(OCCCCCCCCNc2ccnc3ccccc23)cc1 [BF, N-[8-(p-Tolyloxy)octyl]quinolin-4-amine] | 92.8 | 92.8 | 40.9 | 37.2 | 57.1 | 74.1 | 20.8 | 32 (≈ 11.6 µg/mL) |  |
| Cc1ccccc1OCCCCCCCCNc1ccnc2ccccc12 [BG, N-[8-(o-Tolyloxy)octyl]quinolin-4-amine] | 99.1 | 99.1 | 40.1 | 36.2 | 59.2 | 71.1 | 9.88 | 11.8 (≈ 4.29 µg/mL) |  |
| Fc1cccc(OCCCCCCCCNc2ccnc3ccccc23)c1 [BI, N-[8-(3-Fluorophenoxy)octyl]quinolin-4-amine] | 111 | 111 | 76.6 | 84.3 | 71.7 | 81.7 | 28.6 | 47.1 (≈ 17.3 µg/mL) |  |
| Fc1ccc(OCCCCCCCCNc2ccnc3ccccc23)cc1 [BJ, N-[8-(4-Fluorophenoxy)octyl]quinolin-4-amine] | 23.9 | 23.9 | 56.8 | 64.1 | 50.2 | 50.8 | 21.4 | 37.8 (≈ 13.9 µg/mL) |  |
| CCCCCCOc1ccc(CNc2ccnc3ccccc23)cc1F [BK, N-[3-Fluoro-4-(hexyloxy)benzyl]quinolin-4-amine] | 29.2 | 29.2 | 32.1 | 27.3 | 20.6 | 28.3 | 21.4 | 29.4 (≈ 10.4 µg/mL) |  |
| c1ccc(Oc2cccc(CNc3ncnc4ccccc34)c2)cc1 [BM, N-(3-Phenoxybenzyl)quinazolin-4-amine] |  |  |  |  |  |  | 30.6 | 50.5 (≈ 16.5 µg/mL) |  |
| CCCCCCOCCCCCCCC[n+]1ccc(N)cc1 [BO, 4-Amino-1-[8-(hexyloxy)octyl]pyridinium salts] | 13.4 | 13.4 | 82.4 | 28.4 | 28.2 | 18.4 |  |  |  |
| CCCCCCCCCCNc1ncnc2ccccc12 [Compound AH, N-(Decyl)quinazolin-4-amine] |  |  |  |  |  |  |  |  | MIC at 50% inhibition [3]: 0.004-2; cidal activity (MFC within 4 dilutions of the MIC), in words ([3]; 3 isolates): cidal against all 3 neoformans isolates; MIC [3]: 0.25 to 2 µg/mL (≈ 0.876 to 7.01 µM); MFC [3]: 1 to 2 µg/mL (≈ 3.5 to 7.01 µM) |
